Reference: patent US8673951B2, “Isoxazoline-substituted benzamide compound and pesticide” (priority 2005, dated 2014)

Legend:
Assay type in all cases: in vivo
[1] = tested on: cabbage moth (Plutella xylostella); experiment: Insecticidal test against cabbage moth (Test Example 1); conditions: foliar, 144 h, read-out: insecticidal rate (rate of dead insects)
[2] = tested on: common cutworm (Spodoptera litura); experiment: Insecticidal test against common cutworm (Test Example 2); conditions: in Brassica oleracea, foliar, 144 h, read-out: insecticidal rate (rate of dead insects)
Experimental: A 10% emulsifiable concentrate (depending on the compounds, 10% wettable powder was applied for the test) of the compound of the present invention was diluted with water […] To the chemical solution was dipped leaves of cabbage for about 10 seconds, and after air-drying, they were placed in a laboratory dish, then 5-common cutworm (Spodoptera litura) in the stage of second instar larva per the dish were released therein, and the dish was covered with a lid and contained at a thermostat chamber at 25° C. […] Incidentally, the test was carried out with two districts.

[3] = tested on: American dog tick (Dermacentor variabilis); experiment: Insecticidal test against American dog tick (Test Example 20); conditions: 96 h, thin film in laboratory dish, 0.1 μg/cm^2 (*), protonymph, after 4 days, read-out: insecticidal rate (rate of dead insects)
Experimental: After 400 μl of acetone solution in which 4 mg of the compound of the present invention was dissolved in 40 ml of acetone (concentration 100 ppm) was coated on the bottom face and side face of two laboratory dishes having an inner diameter of 5.3 cm, acetone was vaporized to prepare a thin film of the compound of the present invention on the inner wall of the laboratory dish. As the surface area of the inner wall is 40 cm^2, the treated dosage is […]. […] A number of dead insect(s) after 4 days was counted and a rate of dead insects was calculated by the calculation equation similar to that in Test Example 1. Incidentally, the test was carried out with one district.

[4] = tested on: corn earworm (Helicoverpa armigera); experiment: Insecticidal test against corn earworm, Comparative Example 1 (Test Example 23, Table 17); conditions: cabbage leaf dip, third instar larva, after 6 days
Experimental: (§1) A 10% emulsifiable concentrate of the compound of the present invention or comparative compound was diluted with water containing a spreading agent to prepare a chemical solution with a prescribed concentration. To the chemical solution was dipped leaves of cabbage for about 10 seconds, and after air-drying, they were placed in a laboratory dish, then 7-corn earworm (Helicoverpa armigera) in the stage of third instar larva per the dish were released therein, and the dish was covered with a perforated lid and contained at a thermostat chamber at 25° C. Artificial feed (1 cm^3) was added after 2 days of treatment, and a number of dead insect(s) after 6 days was counted and a rate of dead insects was calculated by the following calculation equation. In the meantime, the test was carried out with two areas. Rate of dead insects (%)=(Number of dead insects/Number of released insects)×100 The rate of dead insects in each prescribed concentration of the compounds tested is shown in Table 17.

[5] = tested on: oriental tea tortix (Homona magnanima); experiment: Insecticidal test against oriental tea tortix, Comparative Example 2 (Test Example 24, Table 18); conditions: cabbage leaf dip, third instar larva, after 6 days
Experimental: as §1, with “7-oriental tea tortix (Homona magnanima)” for “7-corn earworm (Helicoverpa armigera)”, “A” for “Artificial feed (1 cm^3) was added after 2 days of treatment, and a”, “18.” for “17.”

SMILES | pest or weed control at 0.1 µg/cm2 [3] [%] | pest or weed control at 10 ppm [1] [%] | pest or weed control at 10 ppm [2] [%] | also measured
COC(=O)NC(=O)c1ccc(C2=NOC(c3cc(Cl)cc(Cl)c3)(C(F)(F)F)C2)cc1C (stereo not shown) [2-003, Methyl N-[4-[5-(3,5-dichlorophenyl)-5-trifluoromethyl-4,5-dihydroisoxazole-3-yl]-2-methylbenzoyl]carbamate] | ≥ 80 | – | – | pest or weed control at 100 ppm [1]: ≥ 80%; pest or weed control at 100 ppm [2]: ≥ 80%
COC(=O)N(COC(C)=O)C(=O)c1ccc(C2=NOC(c3cc(Cl)cc(Cl)c3)(C(F)(F)F)C2)cc1C (stereo not shown) [3-033] | – | – | – | Rate of dead insects ([4]; 1 ppm): 7.1%; Rate of dead insects ([4]; 3 ppm): 50.0%; Rate of dead insects ([4]; 10 ppm): 100%; Rate of dead insects ([4]; 33 ppm): 100%
CCN(C(=O)c1ccc(C2=NOC(c3cc(Cl)cc(Cl)c3)(C(F)(F)F)C2)cc1C)c1ccccc1 (stereo not shown) [5-002, 4-[5-(3,5-Dichlorophenyl)-5-trifluoromethyl-4,5-dihydroisoxazole-3-yl]-N-ethyl-2-methyl benzoic acid anilide] | ≥ 80 | – | – | pest or weed control at 100 ppm [1]: ≥ 80%; pest or weed control at 100 ppm [2]: ≥ 80%
CC(=O)N(C(=O)c1ccc(C2=NOC(c3cc(Cl)cc(Cl)c3)(C(F)(F)F)C2)cc1C)c1ncc(Cl)cn1 (stereo not shown) [5-100, N-Acetyl-N-(5-chloro-2-pyrimidinyl)-4-[5-(3,5-dichlorophenyl)-5-trifluoromethyl-4,5-dihydroisoxazole-3-yl]-2-methyl benzoic acid amide] | ≥ 80 | – | – | pest or weed control at 100 ppm [1]: ≥ 80%; pest or weed control at 100 ppm [2]: ≥ 80%
COCC(=O)N(C(=O)c1ccc(C2=NOC(c3cc(Cl)cc(Cl)c3)(C(F)(F)F)C2)cc1C)c1ncc(Cl)cn1 (stereo not shown) [5-106, N-(5-Chloro-2-pyrimidinyl)-4-[5-(3,5-dichlorophenyl)-5-trifluoromethyl-4,5-dihydro-isoxazole-3-yl]-N-methoxyacetyl-2-methyl benzoic acid amide] | ≥ 80 | ≥ 80 | ≥ 80 | –
Cc1cc(C2=NOC(c3cc(Cl)cc(Cl)c3)(C(F)(F)F)C2)ccc1C(=O)N(C(=O)C(C)C)c1ncc(Br)cn1 (stereo not shown) [5-122, N-(5-Bromo-2-pyrimidinyl)-4-[5-(3,5-dichlorophenyl)-5-trifluoromethyl-4,5-dihydroisoxazole-3-yl]-N-isobutyryl-2-methyl benzoic acid amide] | ≥ 80 | ≥ 80 | ≥ 80 | –
CC(=O)N(C(=O)c1ccc(C2=NOC(c3cc(Cl)cc(Cl)c3)(C(F)(F)F)C2)cc1C)c1cncnc1 (stereo not shown) [5-165] | – | – | – | Rate of dead insects ([5]; 0.1 ppm): 14.3%; Rate of dead insects ([5]; 0.3 ppm): 57.1%; Rate of dead insects ([5]; 1 ppm): 92.9%; Rate of dead insects ([5]; 3 ppm): 100%; Rate of dead insects ([5]; 10 ppm): 100%
CO/N=C\NC(=O)c1ccc(C2=NOC(c3cc(Cl)cc(Cl)c3)(C(F)(F)F)C2)cc1C (stereo not shown) [6-004, (Z)-4-[5-(3,5-Dichlorophenyl)-5-trifluoromethyl-4,5-dihydro-isoxazole-3-yl]-N-(methoxyiminomethyl)-2-methylbenzoic acid amide] | ≥ 80 | ≥ 80 | ≥ 80 | –
CCON=CNC(=O)c1ccc(C2=NOC(c3cc(Cl)cc(Cl)c3)(C(F)(F)F)C2)cc1C (stereo not shown) [6-005, 4-[5-(3,5-Dichlorophenyl)-5-trifluoromethyl-4,5-dihydroisoxazole-3-yl]-N-(ethoxyimino-methyl)-2-methyl benzoic acid amide] | ≥ 80 | ≥ 80 | ≥ 80 | –
CCc1cc(C2=NOC(c3cc(Cl)cc(Cl)c3)(C(F)(F)F)C2)ccc1C(=O)N/C=N\OC (stereo not shown) [6-020, (Z)-4-[5-(3,5-Dichlorophenyl)-5-trifluoromethyl-4,5-dihydroisoxazole-3-yl]-2-ethyl-N-(methoxyiminomethyl)benzoic acid amide] | – | ≥ 80 | ≥ 80 | –
CCO/N=C\NC(=O)c1ccc(C2=NOC(c3cc(Cl)cc(Cl)c3)(C(F)(F)F)C2)cc1OC(F)F (stereo not shown) [6-023, (Z)-4-[5-(3,5-Dichlorophenyl)-5-trifluoromethyl-4,5-dihydroisoxazole-3-yl]-2-difluoromethoxy-N-(ethoxyiminomethyl)benzoic acid amide] | – | – | – | pest or weed control at 100 ppm [1]: ≥ 80%; pest or weed control at 100 ppm [2]: ≥ 80%
COCc1cc(C2=NOC(c3cc(Cl)cc(Cl)c3)(C(F)(F)F)C2)ccc1C(=O)NC(=N)OC (stereo not shown) [6-031, 4-[5-(3,5-Dichlorophenyl)-5-trifluoromethyl-4,5-dihydroisoxazole-3-yl]-N-(methoxy-iminomethyl)-2-methoxymethyl benzoic acid amide] | – | ≥ 80 | ≥ 80 | –
CON=CNC(=O)c1ccc(C2=NOC(c3cc(Cl)cc(Cl)c3)(C(F)(F)F)C2)cc1NC(C)=O (stereo not shown) [6-033, 2-Acetylamino-4-[5-(3,5-dichlorophenyl)-5-trifluoromethyl-4,5-dihydroisoxazole-3-yl]-N-(methoxyiminomethyl)benzoic acid amide] | – | ≥ 80 | ≥ 80 | –
CON=CNC(=O)c1ccc(C2=NOC(c3cc(Cl)cc(C(F)(F)F)c3)(C(F)(F)F)C2)cc1C (stereo not shown) [6-037, 4-[5-(3-Chloro-5-trifluoromethylphenyl)-5-trifluoromethyl-4,5-dihydroisoxazole-3-yl]-N-(methoxyiminomethyl)-2-methyl benzoic acid amide] | – | ≥ 80 | ≥ 80 | –
CON=CN(C)C(=O)c1ccc(C2=NOC(c3cc(Cl)cc(Cl)c3)(C(F)(F)F)C2)cc1C (stereo not shown) [7-002, 4-[5-(3,5-Dichlorophenyl)-5-trifluoromethyl-4,5-dihydroisoxazole-3-yl]-N-(methoxyiminomethyl)-N-methyl-2-methylbenzoic acid amide] | – | ≥ 80 | ≥ 80 | –
CON=CN(C)C(=O)c1ccc(C2=NOC(c3cc(Cl)cc(Cl)c3)(C(F)(F)F)C2)cc1C (stereo not shown) [7-003, 4-[5-(3,5-Dichlorophenyl)-5-trifluoromethyl-4,5-dihydroisoxazole-3-yl]-N-(methoxyiminomethyl)-N-methyl-2-methylbenzoic acid amide] | ≥ 80 | – | – | –
COC(=O)N(CC(F)(F)F)C(=O)c1ccc(C2=NOC(C(F)(F)F)C2c2cc(Cl)cc(Cl)c2)cc1C (stereo not shown) [Comparative Compound A, reference compound] | – | – | – | Rate of dead insects ([4]; 1 ppm): 0%; Rate of dead insects ([4]; 3 ppm): 0%; Rate of dead insects ([4]; 10 ppm): 28.6%; Rate of dead insects ([4]; 33 ppm): 92.9%
Cc1cc(C2=NOC(C(F)(F)F)C2c2cc(Cl)cc(Cl)c2)ccc1C(=O)Nc1ncccn1 (stereo not shown) [Comparative Compound B, reference compound] | – | – | – | Rate of dead insects ([5]; 0.1 ppm): 0%; Rate of dead insects ([5]; 0.3 ppm): 0%; Rate of dead insects ([5]; 1 ppm): 7.1%; Rate of dead insects ([5]; 3 ppm): 64.3%; Rate of dead insects ([5]; 10 ppm): 100%
